Where a chain is given by its changes, count along the chain named.
Tests used:
[1] = test system: HIF2α; test: HIF2α expression in 786-O cells (Western blot); assay type: cell-based, human; conditions: 0.5% serum, 4 hr, honokiol 20 μM, 1-BtOH 0.8%
Method: In FIG. 15B, 786-O cells were plated and then shifted to media containing 0.5% serum 24 hr later. 18 hr later, the cells were treated with 1-Bt0H (0.8%), honokiol (Hon) (20 μM), and t-BtOH (0.8%) as indicated. Cell lysates were prepared 4 hr later and examined for HIF2α and actin expression by Western lot analysis. The experiment shown is representative of two independent experiments.
Extraction of proteins from cultured cells and Western blot analysis of extracted proteins was performed using the ECL system (Amersham) as described previously (Chen et al., “Alternative Phospholipase D/mTOR Survival Signal in Human Breast Cancer Cells,” Oncogene 24:672-9 (2005), which is hereby incorporated by reference in its entirety).
The effect of honokiol on HIF2α expression was examined in these cells.

[2] = biological target: T1, Sos-PH (Homo sapiens, UniProt Q07889); test: PA-induced plasma membrane translocation of GFP-tagged Sos-PH in COS-1 cells (fluorescence microscopy); assay type: cell-based, African green monkey; conditions: membrane-permeable PA 100 μM, 20 min, serum-starved COS-1 cells, wild-type Sos-PH
T1 construct: expressed in transfected cells; host or cells: COS-1
T1 sequence (Q07889 422-551): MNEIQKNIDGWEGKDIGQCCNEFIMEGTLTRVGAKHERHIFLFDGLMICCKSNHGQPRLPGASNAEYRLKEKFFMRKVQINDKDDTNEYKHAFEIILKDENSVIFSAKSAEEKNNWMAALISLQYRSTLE
Method: (§1) In FIG. 6A, COS-1 cells were transfected with GFP-tagged constructs of Sos-PH or Sos-PH-HR/EE. The cells were serum-starved and then treated with PA (100 μM) for 20 min. In FIG. 6B, COS-1 cells were transfected with HA-tagged Sos-ΔC or Sos-ΔC-HR/EE. The cells were serum-starved and then stimulated with serum (20%) for 10 min. For FIGS. 6A-B, the fluorescence staining patterns were analyzed through the acquisition of serial optical Z sections. The images shown represent single 0.25 μm optical sections acquired at the mid plane of the cells with the same exposure time. Membrane localization is reflected by the relative increase in fluorescence intensity at the cell periphery (arrowheads). The boxed areas are enlarged on the top and bottom of the corresponding images. The number of cells displaying plasma membrane localization of the protein is expressed as percentage of the total number of cells scored and normalized to the maximal value obtained for each experiment. […] Results are the mean+/−s.d. of three independent experiments with at least 100 cells scored in each experiment. Scale bars represent 20 μm in all panels. In FIGS. 6C-D, COS-1 cells were co-transfected with HA-tagged Ras and the indicated HA-tagged Sos-ΔC constructs. […] Ras activation was measured by the RBD pull-down assay as described in the Examples. […]

[3] = biological target: T2, Sos-PH (Homo sapiens, UniProt Q07889, H475E/R479E); test: as above; assay type: cell-based, African green monkey; conditions: membrane-permeable PA 100 μM, 20 min, serum-starved COS-1 cells
T2 construct: expressed in transfected cells; host or cells: COS-1
T2 sequence (Q07889 422-551 H475E/R479E): T1 sequence (Q07889 422-551) with H54E, R58E
Method: as §1

[4] = test system: Ras; test: Ras activation by Sos-ΔC after PA treatment, RBD pull-down in COS-1 cells; assay type: cell-based; conditions: membrane-permeable PA 100 μM, serum-starved COS-1 cells
Method: as §1, with “The boxed areas are enlarged on the top and bottom of the corresponding images.” left out, “experiment.” for “experiment. Scale bars represent 20 μm in all panels. In FIGS. 6C-D, COS-1 cells were co-transfected with HA-tagged Ras and the indicated HA-tagged Sos-ΔC constructs.”
The levels of Ras-GTP were determined by the GST-RBD pull down assay as described previously (Boykevisch et al., “Regulation of Ras Signaling Dynamics by Sos-mediated Positive Feedback,” Curr. Biol. 16:2173-2179 (2006), which is hereby incorporated by reference in its entirety). […]

| SMILES | HIF2α expression [1] | Sos-PH translocation to the plasma membrane [2] | plasma membrane recruitment of Sos-PH-HR/EE [3] | Ras activation by SosΔC [4] | level of active Ras in cells expressing SosΔC-HR/EE [4] |
| --- | --- | --- | --- | --- | --- |
| CCCCO [1-butanol] | suppressed | – | – | – | – |
| CCCCCCCCCCCC(=O)OC[C@H](COP(=O)(O)O)OC(=O)CCCCCCCCCCC [PA, 1,2-Dilauroyl-sn-Glycero-3-Phosphate] | – | stimulated | failed to induce | sufficed to induce | did not increase |
